Measurements taken from patent publication US7473790B2 (Pfizer Inc., priority 2003, dated 2009).

target: T1, HCV polymerase (Hepatitis C virus genotype 1b, UniProt P26663); assay: HCV polymerase primer/template-directed transcription assay (32P-GTP incorporation, filter binding); format: biochemical; settings: recombinant HCV polymerase; 30 minutes at 30° C.; concentration giving 50% inhibition of polymerase-directed transcription; read-out: IC50
T1 construct: 2.5 pmoles (0.15 μg) HCV polymerase protein in a final volume of 75 μL
In short: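 IC50s come from triplicate cpm, refit with an enzyme-concentration (30 nM) correction when under 200 nM. Reactions ran 30 min at 30° C in Tris pH 7.2 with MgCl2, 1 μM GTP spiked with α-32P-GTP, biotin-dG12 primer and poly(rC)300 template, with 1% DMSO. Incorporated label was collected on DE filtermats and counted.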

T1 sequence (P26663 2420-3010): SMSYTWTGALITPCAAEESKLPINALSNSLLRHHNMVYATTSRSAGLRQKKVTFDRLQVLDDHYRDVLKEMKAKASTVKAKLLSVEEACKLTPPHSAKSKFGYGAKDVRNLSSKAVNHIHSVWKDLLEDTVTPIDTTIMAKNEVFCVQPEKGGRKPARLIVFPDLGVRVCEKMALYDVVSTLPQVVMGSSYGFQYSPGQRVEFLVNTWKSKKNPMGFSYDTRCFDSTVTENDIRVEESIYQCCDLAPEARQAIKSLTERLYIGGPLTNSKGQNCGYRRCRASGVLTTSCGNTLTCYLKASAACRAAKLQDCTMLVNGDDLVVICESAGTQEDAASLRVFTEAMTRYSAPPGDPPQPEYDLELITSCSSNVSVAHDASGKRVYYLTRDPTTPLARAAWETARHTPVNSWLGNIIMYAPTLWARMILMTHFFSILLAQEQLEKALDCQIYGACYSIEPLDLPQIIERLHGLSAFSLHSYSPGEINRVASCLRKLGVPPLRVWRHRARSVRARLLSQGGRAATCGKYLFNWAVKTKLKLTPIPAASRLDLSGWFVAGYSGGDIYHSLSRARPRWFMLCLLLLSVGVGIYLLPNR

SMILES | IC50 [nM]
Cc1cc(C)n2nc(CC3=C(O)CC(CCc4ccc(-c5c(C)noc5C)cc4)(C4CCCC4)OC3=O)nc2n1 (centres unmarked) [B(04), 6-Cyclopentyl-6-{2-[4-(3,5-dimethyl-isoxazol-4-yl)-phenyl]-ethyl}-3-(5,7-dimethyl-[1,2,4]triazolo[1,5-a]pyrimidin-2-ylmethyl)-4-hydroxy-5,6-dihydro-pyran-2-one] | 24
COc1ccc(CCC2(C3CCCC3)CC(=O)C(Cc3nccs3)C(=O)O2)cc1Cl (centres unmarked) [B(47), 6-[2-(3-chloro-4-methoxyphenyl)ethyl]-6-cyclopentyl-3-(1,3-thiazol-2-ylmethyl)dihydro-2H-pyran-2,4(3H)-dione] | 800
CCc1cc(CCC2(C3CCCC3)CC(=O)CC(=O)O2)ccn1 (centres unmarked) [A(163), 6-Cyclopentyl-6-[2-(2-ethyl-pyridin-4-yl)-ethyl]-dihydro-pyran-2,4-dione] | 1900
CCOC(=O)c1cnc2nc(SC3=C(O)CC(CCc4cc(Cl)c(OC)cc4OC)(C4CCCC4)OC3=O)nn2c1 (centres unmarked) [C(93), ethyl 2-({6-[2-(5-chloro-2,4-dimethoxyphenyl)ethyl]-6-cyclopentyl-4-hydroxy-2-oxo-5,6-dihydro-2H-pyran-3-yl}thio)[1,2,4]triazolo[1,5-a]pyrimidine-6-carboxylate] | 14
COc1ccc(CCC2(C3CCCC3)CC(O)=C(Cc3nc4nc(C)cc(C)n4n3)C(=O)O2)cc1C (centres unmarked) [B(09), 6-Cyclopentyl-3-(5,7-dimethyl-[1,2,4]triazolo[1,5]pyrimidin-2-ylmethyl)-4-hydroxy-6-[2-(4-methoxy-3-methyl-phenyl)-ethyl]-5,6-dihydro-pyran-2-one] | 54
CCC(C#N)(CC)c1c(F)cc(CCC2(C3CCCC3)CC(O)=C(Cc3nc4ncc(C)cn4n3)C(=O)O2)cc1F (single isomer, unassigned; (+)) [A(263), (+)-2-(4-{2-[2-Cyclopentyl-4-hydroxy-5-(6-methyl-[1,2,4]triazolo[1,5-a]pyrimidin-2-ylmethyl)-6-oxo-3,6-dihydro-2H-pyran-2-yl]-ethyl}-2,6-difluoro-phenyl)-2-ethyl-butyronitrile] | 7
CC1(c2cccc(CCC3(C4CCCC4)CC(=O)CC(=O)O3)c2)CC(=O)CC(=O)O1 (centres unmarked) [A(28), 6-Cyclopentyl-6-[2-(3-(6-Methyl-dihydro-pyran-2,4-dione)-phenyl)-ethyl]-dihydro-pyran-2,4-dione] | 3900
COc1ccc(CCC2(C3CCCC3)CC(O)=C(Sc3nc4ncccc4[nH]3)C(=O)O2)cc1Cl (centres unmarked) [C(43), 6-[2-(3-chloro-4-methoxyphenyl)ethyl]-6-cyclopentyl-4-hydroxy-3-(1H-imidazo[4,5-b]pyridin-2-ylthio)-5,6-dihydro-2H-pyran-2-one] | 35
CCc1cc(CCC2(C3CCCC3)CC(O)=C(Cc3nc4nc(C)cc(C)n4n3)C(=O)O2)cc(Cl)c1OC (centres unmarked) [B(97), 6-[2-(3-Chloro-5-ethyl-4-methoxy-phenyl)-ethyl]-6-cyclopentyl-3-(5,7-dimethyl-[1,2,4]triazolo[1,5-a]pyrimidin-2-ylmethyl)-4-hydroxy-5,6-dihydro-pyran-2-one] | 9
Cc1cnc2nc(CC3C(=O)CC(CCc4ccc(C(C)(C)C#N)c(F)c4)(C4CCCC4)OC3=O)nn2c1 (single isomer, unassigned; (-)) [A(110), (−)-2-(4-{2-[2-Cyclopentyl-5-(6-methyl-[1,2,4]triazolo[1,5-a]pyrimidin-2-ylmethyl)-4,6-dioxo-tetrahydro-pyran-2-yl]-ethyl}-2-fluoro-phenyl)-2-methyl-propionitrile] | 1
COc1ccc(CCC2(C3CCCC3)CC(O)=C(Cc3nc4nc(C)cc(C)n4n3)C(=O)O2)c(OC)c1 (centres unmarked) [B(117), 6-Cyclopentyl-6-[2-(2,4-dimethoxy-phenyl)-ethyl]-3-(5,7-dimethyl-[1,2,4]triazolo[1,5-a]pyrimidin-2-ylmethyl)-4-hydroxy-5,6-dihydro-pyran-2-one] | 111
